In patent publication US6878364B2, “Animal model for flaviviridae infection” (Cornell Research Foundation, Inc., priority 2000, dated 2005):
Where two headings read alike, the source gives them in different places.

How the values were obtained:
[1] = Cytotoxicity on uninfected woodchuck primary hepatocytes (CytoTox96); type: cell-based
[2] = test system: cpBVDV (cytopathogenic NADL isolate of BVDV); test: microbe, parasite or virus in culture; conditions: Bovine viral diarrhea virus isolates and strains, in Bos taurus, 72 h, read-out: ckEC50 (drug concentration sufficient to inhibit 50% of viral induced cell killing)
Method: (§1) BVDV stocks and titration: The cytopathogenic NADL isolate of BVDV (cpBVDV) was used for the purposes of this study. A viral stock was made by freeze-thaw of a bovine testicular cell line 5 days after infection with cpBVDV. Virus propagated in bovine cells and woodchuck cell cultures was tittered in NCL cells by measuring cytopathic effects (CPE). NCL cells grown to confluence, were passaged to 96 well microtiter plates at a density of 2×10^4 cells/well (5×10^5/cm^2) and incubated for one hour to allow cell attachment. After attachment, cell cultures were inoculated with serially diluted tissue culture supernatant samples. The endpoint BVDV titer was taken as the reciprocal of the last dilution in which cells were killed 5 days post-infection in one of three triplicate wells, assayed by methylene blue staining.
(§2) Methylene blue assay: A quantitative measure of cell numbers was obtained through reading the absorbance of methylene blue (Sigma, St. Louis, Mo.) uptake by viable cells. Briefly, three days after infection of cells with cpBVDV, cultures were rinsed with phosphate buffered saline (PBS; Life Technologies) followed by fixation in a Hanks balanced salt solution (HBSS; LifeTechnologies) consisting of 1.25% glutaraldehyde (Fisher Scientific, Fair Lawn, N.J.) and 0.06% methylene blue (Sigma), for 1 hour at 37° C. […] The absorbance of the methylene blue in solution was measured using an ELISA plate reader (Model EL311; Bio-Tek instruments Inc., Winooski, Vt.) with a light filter setting at 630 nm. A standard curve was established for each cell line relating absorbance with cell numbers. […]
(§3) The medium was replenished daily with drug and the antiviral effect, cytotoxicity, and reduction in viral yield determined after three days of treatment.
(§4) Cell killing due to cpBVDV infection and drug cytotoxicity was calculated for each experimental data point and plotted. […] A drug concentration sufficient to inhibit 50% of viral induced cell killing (ckEC50) was determined using a peak, log normal, 4 parameter equation. […] A selectivity index (SI) was determined as the CC50/EC90 ratio.

[3] = test system: cpBVDV (cytopathogenic NADL isolate of BVDV)
Method: as §1, §2, §3, §4

[4] = test system: cpBVDV (cytopathogenic NADL isolate of BVDV); remark: listed apart in the source
Method: as §1, §2, §3, §4

[5] = test system: cpBVDV (cytopathogenic NADL isolate of BVDV); remark: listed apart in the source
Method: Virus propagated in bovine cells and woodchuck cell cultures was tittered in NCL cells by measuring cytopathic effects (CPE). NCL cells grown to confluence, were passaged to 96 well microtiter plates at a density of 2×10^4 cells/well (5×10^5/cm^2) and incubated for one hour to allow cell attachment. After attachment, cell cultures were inoculated with serially diluted tissue culture supernatant samples. The endpoint BVDV titer was taken as the reciprocal of the last dilution in which cells were killed 5 days post-infection in one of three triplicate wells, assayed by methylene blue staining.
Antiviral assay: A lyophilized form of Ribavirin (Virazole^R; Viratek, Inc., Covina, Calif.) was dissolved in H2O to a yield a stock concentration of 100 mM and serially diluted two fold in culture medium prior to testing over a range of 100-0.049 μM. Ribavirin was evaluated in woodchuck WCH-8 cells and in bovine NCL cells in a 96 well format using the methylene blue assay to measure cell viability. The medium was replenished daily with drug and the antiviral effect, cytotoxicity, and reduction in viral yield determined after three days of treatment. […]
Cell killing due to cpBVDV infection and drug cytotoxicity was calculated for each experimental data point and plotted. […] A selectivity index (SI) was determined as the CC50/EC90 ratio.

HCV = conditions: cited from earlier work
[6] = test system: cpBVDV (cytopathogenic NADL isolate of BVDV); test: microbe, parasite or virus in culture; conditions: Bovine viral diarrhea virus isolates and strains, in Marmota monax, 72 h, read-out: ckEC50 (drug concentration sufficient to inhibit 50% of viral induced cell killing)
Method: as §1, §2, §3, §4

[7] = Cytotoxicity on uninfected WCH-8 cells (methylene blue assay); type: cell-based; conditions: woodchuck, uninfected woodchuck hepatic WCH-8 cells, three days of treatment
in vitro = type: cell-based; conditions: bovine

## NC(=O)c1ncn([C@@H]2O[C@H](CO)[C@@H](O)[C@H]2O)n1 [Ribavirin, 1-β-D-ribofuranosyl-1-1,2,4-triazole-3-carboxamide]
[1]
  CC50: 44.8 µM
[2]
  EC50: 5.2 µM
[3]; WCH-8 cells
  selectivity index (CC50/tEC90): 2.7
[3]; cpBVDV-infected WCH-8 cells, three days of treatment
  tEC90 (drug concentration which reduced viral titers by 90%): 1.1 µM
[4]; NCL cells
  selectivity index (CC50/tEC90): 1.7
[4]; cpBVDV-infected NCL cells, three days of treatment
  tEC90 (drug concentration which reduced viral titers by 90%): 3.1 µM
[5]; cpBVDV-infected woodchuck primary hepatocytes
  tEC90 (drug concentration which reduced viral titers by 90%): 3 µM
[5]; woodchuck primary hepatocytes
  selectivity index (CC50/tEC90): 14.9
HCV
  patients with serum amino transferase levels reduced to normal: 40%
[6]
  EC50: 1.5 µM
[7]
  CC50 at 3 days: 2.9 µM
In vitro
  CC50 at 3 days: 4.3 µM
